The source of these data is patent US20250230147A1, “LACTAMS AS CBL-B INHIBITORS” (Genentech, Inc., priority 2021, published 2025).

The target in one assay is Cbl-b (Homo sapiens (Human), UniProt Q13191). Nature of the assay: Cbl-b LCK Ub TR-FRET assay (Cbl-b Lck HTRF). It is filed as biochemical. The method in brief: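 TR-FRET (340 nm excitation, 615/665 nm emission) read after adding HA-ubiquitin–UBE2D2 thioester, anti-HA-D2 and streptavidin-Eu. Beforehand, compounds incubated 60 min with biotinylated Cbl-b, then 90 min with His-LCK and ATP (1 mM in 2× mix); IC50 from 10 concentrations, DMSO high and no-LCK low controls.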
(TR-FRET usually uses a lanthanide donor and a delayed reading to cut background.)

A further assay concerns the target c-Cbl (Homo sapiens (Human), UniProt P22681). Nature of the assay: C-Cbl LCK Ub TR-FRET assay (c-cbl Lck HTRF). It is filed as biochemical. Conditions: for (fold-selectivity): C-cbl Lck HTRF IC50 relative to Cbl-b Lck HTRF IC50. The method in brief:
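Detection reagents added, brief spin, 20 min RT. IC50 fit normalized to no-LCK (low) and DMSO (high) controls.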

Chain of c-Cbl (P22681 47-435): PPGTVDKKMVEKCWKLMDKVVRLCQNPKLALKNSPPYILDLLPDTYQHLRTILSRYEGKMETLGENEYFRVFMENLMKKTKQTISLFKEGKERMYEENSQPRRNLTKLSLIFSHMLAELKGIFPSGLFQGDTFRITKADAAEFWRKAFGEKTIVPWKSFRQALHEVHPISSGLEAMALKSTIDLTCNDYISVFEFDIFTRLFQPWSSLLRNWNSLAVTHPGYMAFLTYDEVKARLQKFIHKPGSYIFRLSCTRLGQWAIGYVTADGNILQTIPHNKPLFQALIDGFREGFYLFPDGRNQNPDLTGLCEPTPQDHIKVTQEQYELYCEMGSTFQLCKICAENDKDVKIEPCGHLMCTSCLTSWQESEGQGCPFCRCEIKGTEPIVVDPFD
Chain of Cbl-b (Q13191 40-426): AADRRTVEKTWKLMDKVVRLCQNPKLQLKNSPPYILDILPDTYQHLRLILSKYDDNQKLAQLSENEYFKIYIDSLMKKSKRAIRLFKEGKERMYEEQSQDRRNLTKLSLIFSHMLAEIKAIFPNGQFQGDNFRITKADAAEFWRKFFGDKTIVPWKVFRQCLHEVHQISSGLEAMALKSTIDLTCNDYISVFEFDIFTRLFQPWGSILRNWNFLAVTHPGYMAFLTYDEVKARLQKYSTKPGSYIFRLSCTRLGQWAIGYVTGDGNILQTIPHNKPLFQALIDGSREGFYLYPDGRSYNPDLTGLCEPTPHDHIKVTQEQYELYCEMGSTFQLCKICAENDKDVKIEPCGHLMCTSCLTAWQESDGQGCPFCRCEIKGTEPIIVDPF

As a reminder, the IC50 is the concentration needed to halve the response being measured. `CC(C)[C@H]1CN(C)CCN1Cc1cc(Cl)c2c(c1)C(=O)N(c1cccc(C3(Cc4nncn4C)CC(F)(F)C3)c1)C2` [Compound 281, (S)-4-chloro-2-(3-(3,3-difluoro-1-((4-methyl-4H-1,2,4-triazol-3-yl)methyl)cyclobutyl)phenyl)-6-((2-isopropyl-4-methylpiperazin-1-yl)methyl)isoindolin-1-one] returned an IC50 against Cbl-b of 16 nM. Moreover, at c-Cbl, the 50% inhibitory concentration (IC50) was 11 nM and the “(fold-selectivity)” value is “(0.68x)”.
Turning to `Cn1cnnc1[C@H](F)C1(c2cccc(N3Cc4c(cc(CN5CC(C)(O)C5)cc4C(F)(F)F)C3=O)c2)CC(F)(F)C1` [Compound 51, (R)-2-(3-(3,3-difluoro-1-(fluoro(4-methyl-4H-1,2,4-triazol-3-yl)methyl)cyclobutyl)-phenyl)-6-((3-hydroxy-3-methylazetidin-1-yl)methyl)-4-(trifluoromethyl)isoindolin-1-one], the 50% inhibitory concentration (IC50) at Cbl-b came out at 62 nM. At c-Cbl, the IC50 is 150 nM and the “(fold-selectivity)” value was 2.4x.
`CC[C@@H](C)NCc1cc2c(c(C(F)(F)F)c1)CN(c1cccc(C3(Cc4nncn4C)CC(F)(F)C3)c1)C2=O` [Compound 370, (R)-6-((sec-butylamino)methyl)-2-(3-(3,3-difluoro-1-((4-methyl-4H-1,2,4-triazol-3-yl)methyl)cyclobutyl)phenyl)-4-(trifluoromethyl)isoindolin-1-one]: the IC50 against Cbl-b came to 62 nM. On c-Cbl, the midpoint of inhibition, the IC50, lay at 63 nM and the “(fold-selectivity)” value is reported as “(1.0x)”.
On the same counts, the results for `Cn1cnnc1CC1(c2cccc(N3Cc4c(cc(OCc5c[nH]cn5)cc4C(F)(F)F)C3=O)c2)CC(F)(F)C1` [Compound 422, 6-((1H-imidazol-4-yl)methoxy)-2-(3-(3,3-difluoro-1-((4-methyl-4H-1,2,4-triazol-3-yl)methyl)cyclobutyl)phenyl)-4-(trifluoromethyl)isoindolin-1-one] are 16 nM, 17 nM and “(1.1x)”.
As to `Cn1cnnc1[C@H](F)C1(c2cccc(N3Cc4c(cc(CN5CC[C@@H](F)C5)cc4C(F)(F)F)C3=O)c2)COC1` [Compound 80, 2-(3-(3-((R)-fluoro(4-methyl-4H-1,2,4-triazol-3-yl)methyl)oxetan-3-yl)phenyl)-6-(((R)-3-fluoropyrrolidin-1-yl)methyl)-4-(trifluoromethyl)isoindolin-1-one], the half-maximal inhibitory concentration (IC50) against Cbl-b is 110 nM; on c-Cbl it was 290 nM. Moreover, the “(fold-selectivity)” value at c-Cbl came to 2.6x.
On the same counts, the results for `CC[C@H]1CN(C)CCN1Cc1cc2c(c(C(F)(F)F)c1)CN(c1cccc(C3(Cc4nncn4C)CC(F)(F)C3)c1)C2=O` [Compound 434, (S)-2-(3-(3,3-difluoro-1-((4-methyl-4H-1,2,4-triazol-3-yl)methyl)cyclobutyl)phenyl)-6-((2-ethyl-4-methylpiperazin-1-yl)methyl)-4-(trifluoromethyl)isoindolin-1-one] are 18 nM, 17 nM and “(0.95x)”.
`CSc1cc(C2(Cc3nncn3C)CCC2)cc(N2Cc3c(cc(CNC4(C)CCC4)cc3C(F)(F)F)C2=O)n1` [Compound 251, 2-(4-(1-((4-methyl-4H-1,2,4-triazol-3-yl)methyl)cyclobutyl)-6-(methylthio)pyridin-2-yl)-6-(((1-methylcyclobutyl)amino)methyl)-4-(trifluoromethyl)isoindolin-1-one] had an IC50 against Cbl-b of 11 nM. In addition, on c-Cbl, the IC50 was determined as 8.4 nM and the “(fold-selectivity)” value is listed as “(0.76x)”.
In the case of `C=CC(=O)Nc1cc(C2(Cc3nncn3C)CCC2)cc(N2Cc3c(cc(CN4CCN(C)C[C@@H]4C(C)C)cc3C(F)(F)F)C2=O)n1` [Compound 239, (S)—N-(6-(6-((2-isopropyl-4-methylpiperazin-1-yl)methyl)-1-oxo-4-(trifluoromethyl)isoindolin-2-yl)-4-(1-((4-methyl-4H-1,2,4-triazol-3-yl)methyl)cyclobutyl)-pyridin-2-yl)acrylamide], at Cbl-b, the IC50 worked out at 35 nM. Also, on c-Cbl, it took 48 nM to reach half-maximal inhibition (IC50) and the “(fold-selectivity)” value is on record as “(1.4x)”.
On Cbl-b, `Cn1cnnc1[C@@H](F)C1(c2cccc(N3Cc4c(cc(CN5CC[C@@H](F)C5)cc4C(F)(F)F)C3=O)c2)COC1` [Compound 81, 2-(3-(3-((S)-fluoro(4-methyl-4H-1,2,4-triazol-3-yl)methyl)oxetan-3-yl)phenyl)-6-(((R)-3-fluoropyrrolidin-1-yl)methyl)-4-(trifluoromethyl)isoindolin-1-one] showed a half-inhibitory concentration (IC50) of 270 nM. Further, at c-Cbl, the half-maximal inhibitory concentration (IC50) was 750 nM and the “(fold-selectivity)” value is 2.8x.
Turning to `CCCC1(O)CN(Cc2cc3c(c(C(F)(F)F)c2)CN(c2cccc(C4([C@@H](F)c5nncn5C)COC4)c2)C3=O)C1` [Compound 171, (R)-2-(3-(3-(fluoro(4-methyl-4H-1,2,4-triazol-3-yl)methyl)oxetan-3-yl)phenyl)-6-((3-hydroxy-3-propylazetidin-1-yl)methyl)-4-(trifluoromethyl)isoindolin-1-one], the 50% inhibitory concentration (IC50) against Cbl-b is 49 nM; on c-Cbl, 82 nM. Also, at c-Cbl, the “(fold-selectivity)” value stood at 1.7x.
In the case of `Cn1cnnc1[C@H](F)C1(c2cccc(N3Cc4c(cc([C@H](N)C5CCC5)cc4C(F)(F)F)C3=O)c2)COC1` [Compound 392, 6-((R)-amino(cyclobutyl)methyl)-2-(3-(3-((R)-fluoro(4-methyl-4H-1,2,4-triazol-3-yl)methyl)oxetan-3-yl)phenyl)-4-(trifluoromethyl)isoindolin-1-one], the IC50 against Cbl-b was determined as 13 nM; on c-Cbl, 15 nM. Moreover, the “(fold-selectivity)” value on c-Cbl is recorded as “(1.1x)”.
Regarding `CC(C)[C@H]1CN(C)CCN1Cc1cc2c(c(C(F)(F)F)c1)CN(c1cc(C3(Cc4nncn4C)CCC3)cc(C#N)n1)C2=O` [Compound 299, (S)-6-(6-((2-isopropyl-4-methylpiperazin-1-yl)methyl)-1-oxo-4-(trifluoromethyl)isoindolin-2-yl)-4-(1-((4-methyl-4H-1,2,4-triazol-3-yl)methyl)cyclobutyl)picolinonitrile], at Cbl-b, half-maximal inhibition (IC50) required 11 nM. Besides, at c-Cbl, inhibition was half-maximal at 5.4 nM (IC50) and the “(fold-selectivity)” value is reported as “(0.50x)”.
On the same counts, the results for `Cn1cnnc1CC1(c2cc(NC3CCCC3)nc(N3Cc4c(cccc4C(F)(F)F)C3=O)c2)CCC1` [Compound 296, 2-(6-(cyclopentylamino)-4-(1-((4-methyl-4H-1,2,4-triazol-3-yl)methyl)cyclobutyl)pyridin-2-yl)-4-(trifluoromethyl)isoindolin-1-one] are 440 nM, 2500 nM and “(5.7x)”.
For `Cn1cnnc1CC1(c2cc(C3CCC3)nc(N3Cc4c(cccc4C(F)(F)F)C3=O)c2)COC1` [Compound 265, 2-(6-cyclobutyl-4-(3-((4-methyl-4H-1,2,4-triazol-3-yl)methyl)oxetan-3-yl)pyridin-2-yl)-4-(trifluoromethyl)isoindolin-1-one], the concentration for half-maximal inhibition (IC50) on Cbl-b was 880 nM. On c-Cbl, the IC50 is 1300 nM and the “(fold-selectivity)” value was “(1.4x)”.
As to `Cn1cnnc1[C@H](F)C1(c2cccc(N3Cc4c(cc(CNC5(C)CCC5)cc4C(F)(F)F)C3=O)c2)COC1` [Compound 494, (R)-2-(3-(3-(fluoro(4-methyl-4H-1,2,4-triazol-3-yl)methyl)oxetan-3-yl)phenyl)-6-(((1-methylcyclobutyl)amino)methyl)-4-(trifluoromethyl)isoindolin-1-one], half-maximal inhibition on Cbl-b (IC50) required 13 nM. In addition, at c-Cbl, the half-maximal inhibitory concentration (IC50) came out at 12 nM and the “(fold-selectivity)” value is recorded as “(0.94x)”.
On to `CCN1CCN(Cc2cc3c(c(C(F)(F)F)c2)CN(c2cccc(C4([C@H](F)c5nncn5C)CC(F)(F)C4)c2)C3=O)[C@@H](C(C)C)C1` [Compound 461, 2-(3-(3,3-difluoro-1-((S)-fluoro(4-methyl-4H-1,2,4-triazol-3-yl)methyl)cyclobutyl)phenyl)-6-(((S)-4-ethyl-2-isopropylpiperazin-1-yl)methyl)-4-(trifluoromethyl)isoindolin-1-one], for which the IC50 against Cbl-b worked out at 9.9 nM. At c-Cbl, the concentration for half-maximal inhibition (IC50) is 8.2 nM and the “(fold-selectivity)” value was “(0.82x)”.
Take `CC(C)[C@H]1CN(C)CCN1Cc1cc2c(c(C(F)(F)F)c1)CN(c1cccc(C3([C@H](F)c4nncn4C)CC(F)(F)C3)c1)C2=O` [Compound 190, 2-(3-(3,3-difluoro-1-((S)-fluoro(4-methyl-4H-1,2,4-triazol-3-yl)methyl)cyclobutyl)phenyl)-6-(((S)-2-isopropyl-4-methylpiperazin-1-yl)methyl)-4-(trifluoromethyl)isoindolin-1-one]: the IC50 is 47 nM on Cbl-b and 38 nM against c-Cbl. The “(fold-selectivity)” value on c-Cbl was 0.82x.
As to `CC(C)[C@H]1CN(C)CCN1Cc1cc2c(c(C(F)(F)F)c1)CN(c1cccc(C3([C@@H](F)c4nc(F)cn4C)COC3)c1)C2=O` [Compound 269, 2-(3-(3-((R)-fluoro(4-fluoro-1-methyl-1H-imidazol-2-yl)methyl)oxetan-3-yl)phenyl)-6-(((S)-2-isopropyl-4-methylpiperazin-1-yl)methyl)-4-(trifluoromethyl)isoindolin-1-one], the concentration for half-maximal inhibition (IC50) worked out at 210 nM against Cbl-b and 470 nM at c-Cbl. The “(fold-selectivity)” value on c-Cbl is “(2.3x)”.
For the compound `CC(C)[C@H]1CN(C)CCN1Cc1cc2c(c(C(F)(F)F)c1)CN(c1cccc(C3(Cc4nncn4C)CCC3)c1)C2=O` [Compound 410, (S)-6-((2-isopropyl-4-methylpiperazin-1-yl)methyl)-2-(3-(1-((4-methyl-4H-1,2,4-triazol-3-yl)methyl)cyclobutyl)phenyl)-4-(trifluoromethyl)isoindolin-1-one], the IC50 against Cbl-b worked out at 12 nM. For the same compound, at c-Cbl, the IC50 came out at 77 nM and the “(fold-selectivity)” value is listed as “(0.62x)”.
